Measurements: US7687624B2, “Process for the production of N-arylmorpholinones” (Merck Patent GmbH, priority 2003, dated 2010)

Tests used:
[1] = pKa value of the amine; cited from earlier work

In the case of `Cc1cc([N+](=O)[O-])ccc1N` [2-Methyl-4-nitroaniline], the pKa [1] is listed as 1.04.
In the case of `Nc1ccccc1[N+](=O)[O-]` [2-Nitroaniline], the pKa [1] is listed as −0.23.
For `Nc1cccc([N+](=O)[O-])c1` [3-Nitroaniline], the pKa [1] is given as 2.5.
In the case of `Nc1ccc(C(=O)c2ccccc2)cc1` [4-Aminobenzophenone], the pKa [1] is given as 2.2.
For `N#Cc1ccc(N)cc1` [4-Cyanoaniline], the pKa [1] is listed as 1.7.
For `COc1ccc(N)cc1` [4-Methoxyaniline], the pKa [1] is given as 5.4.
In the case of `NCc1ccccc1` [Benzylamine], the pKa [1] is listed as 9.5.
`O=C1COCCN1c1ccc([N+](=O)[O-])cc1` [Example 1, 4-(4-Nitrophenyl)-3-oxomorpholine] showed a melting point of 150 to 152 °C.
In the case of `COC(=O)c1ccc(N)cc1` [Methyl 4-aminobenzoate], the pKa [1] is given as 1.5.
